Read-outs that look alike come from different tables or passages of the source.
Assays:
[1] = In vivo pharmacokinetic determination of compound (I), compound A and their metabolites in plasma; parameters: species or system New Zealand White Rabbits; conditions: both sexes, New Zealand White, male and female rabbit; for AUC(0-inf) / Cmax / Tmax / MRT / AUC(0-t): rabbit, po, 10 mg/kg; for MRT: read-out: MRT (mean residence time)
Source text: In vivo pharmacokinetic determination of compound (I), compound A and their metabolites in New Zealand White Rabbits.
Male New Zealand rabbits (Crl: KBL (NZW), Charles River, France) and female New Zealand rabbits (NZW INRA A1077, Centre Lago) were used. Per compound (compound of formula (I) and compound A) one male and two female rabbits were used with a mean weight of 2.6±0.2 kg. A complete plasma concentration time-profile was obtained from each individual animal. Standard diet and tap water were available ad libitum. Compound of formula (I) and compound A were both dissolved in a 10% (w/v) SBE-B-CD (sulfobutyl ether-beta-cyclodextrin) research grade (Captisol) solution at a final concentration of 1 mg/ml. HCl and PVP K30 were added to facilitate dissolution of the compounds. After total dissolution, the pH was brought up to 2.6/2.7 with NaOH. The formulations were stored at room temperature, protected from light and analysed quantitatively with LC-MS/MS on the day of preparation. Stability of the formulations was checked on the day of dosing. Animals were dosed orally by gavage at 10 ml/kg to obtain a final dose of 10 mg/kg. From each individual dosed animal, blood samples were taken at 30 minutes, 1, 2, 4, 7 and 24 hours after oral administration. Blood was collected by multiple sampling from a lateral ear vein into Multivette® 600 K3E tubes (Sarstedt). Samples were placed immediately on melting ice and plasma was obtained following centrifugation at 4° C. for 10 minutes at approximately 1900×g. All samples were shielded from daylight and stored at ≤−18° C. prior to analysis. Plasma samples were analysed for compound (I), compound A, metabolite 1, metabolite 2, N-desmethyl metabolite 3 (which was calculated on the curve of N-desmethyl metabolite 4) and N-desmethyl metabolite 4 using a qualified research LC-MS/MS method. The key analytical performance (linearity, upper and lower limit of quantification, accuracy and precision) of the method was reported together with the plasma concentrations. The lower limit of quantification (LLOQ) for plasma was 1.00 ng/ml for all compounds. A limited pharmacokinetic analysis was performed using Phoenix™ Professional (Version 6.2.1). A non-compartmental analysis using the lin/log trapezoidal rule with lin/log interpolation was used for all data.

[2] = Solubility of Metabolite 2; type: physicochemical
Source text: Solubility of Metabolite 2:

EBC1 = assay: Proliferation assay with Alamar blue, EBC-1 cells; type: cell-based; conditions: Homo sapiens, EBC-1, 96 h, 4 days incubation
Protocol: (§1) Inhibition of Proliferation of Cancer Cells Carrying Met Amplification and Dependent on Met Signaling by the Compound of Formula (I)
(§2) Proliferation Assay with Alamar Blue
(§3) Cells were seeded out in a 96-well plate in 180 μl growth medium. Depending on the growth curve test the amount of cells per well was different for each cell line. The cells were incubated overnight in an incubator at 37° C. in a humidified 5% CO2 atmosphere. The next day: The compound plate was prepared and 4 μl of compound was added to 196 μl of pre-warmed medium. 20 μl of this was added to 180 μl of cells. This was incubated for 4 days after adding the compound at 37° C. in a humidified 5% CO2 atmosphere. After the 4 days 40 μl of Alamar blue solution was added. This was incubated at 37° C. in a humidified 5% CO2 atmosphere for 4 hours (depending on the cell line this was tested before at different hours of incubation during the growth curve test). After the 4 hours the fluorescence was measured at excitation 530 nm, emission 590 nm. The fluorescence of control (DMSO treatment) was taken as 100% and the fluorescence of cells incubated with compounds was calculated against the control in %. So a dose response curve could be made and a IC50 could be calculated.

CHO Parental cells = assay: Cytotoxicity test (PrestoBlue viability), CHO parental cells; type: cell-based, Chinese Hamster; conditions: for cytotoxic effects (in words): 100 μM, both CHO parental and OCT2 cells; for Cell Viability %: CHO parental cells, after 1 minute of incubation, compound of formula (I) 100 μM, Triton X-100 1%
Protocol: (§4) Cytotoxicity of the compound of formula (I) was determined at 100 μM, and this in both CHO parental and OCT2 cells. Also a 1% Triton-X100 condition was included, as a positive control cytotoxic reagent. After 1 minute of incubation the supernatant was aspirated, the dry cells washed twice with 1 mL HBSS^+/++10 mM Hepes pH 7.4 (37° C.). After aspiration of the buffer, a 1/10 dilution of the PrestoBlue Viability Reagent (Life Technologies) in HBSS^+/++10 mM Hepes pH 7.4 was added and plates were incubated for 60 minutes at 37° C., protected from light. Each well was sampled (150 μL) in a black 96-well plate and fluorescence was measured (Excitation: 560 nm/12 nm bandwith, Emission: 590 nm/12 nm bandwith).

[3] = system: aldehyde oxidase / CYP450; assay: Metabolisation of compound of formula (I) compared to compound A
Source text: This may decrease renal toxicity.
In case of the present compound of formula (I) more of the N-desmethyl metabolite with the following structure is formed

SNU-5 = assay: Proliferation assay with Alamar blue, Snu-5 cells; type: cell-based; conditions: Homo sapiens, 96 h, 4 days incubation
Protocol: as §1, §2, §3

CHO OCT2 cells = assay: Cytotoxicity test (PrestoBlue viability), CHO OCT2 cells; type: cell-based, Chinese Hamster; conditions: after 1 minute of incubation, compound of formula (I) 100 μM, Triton X-100 1%
Protocol: as §4

OCT2 (SLC22A2) = target: T1, OCT2 (SLC22A2) (Homo sapiens, UniProt O15244); assay: cell-based; type: cell-based
T1 construct: host or cells: Chinese Hamster Ovary (CHO) cells stably transfected with OCT2
T1 sequence (O15244 1-555): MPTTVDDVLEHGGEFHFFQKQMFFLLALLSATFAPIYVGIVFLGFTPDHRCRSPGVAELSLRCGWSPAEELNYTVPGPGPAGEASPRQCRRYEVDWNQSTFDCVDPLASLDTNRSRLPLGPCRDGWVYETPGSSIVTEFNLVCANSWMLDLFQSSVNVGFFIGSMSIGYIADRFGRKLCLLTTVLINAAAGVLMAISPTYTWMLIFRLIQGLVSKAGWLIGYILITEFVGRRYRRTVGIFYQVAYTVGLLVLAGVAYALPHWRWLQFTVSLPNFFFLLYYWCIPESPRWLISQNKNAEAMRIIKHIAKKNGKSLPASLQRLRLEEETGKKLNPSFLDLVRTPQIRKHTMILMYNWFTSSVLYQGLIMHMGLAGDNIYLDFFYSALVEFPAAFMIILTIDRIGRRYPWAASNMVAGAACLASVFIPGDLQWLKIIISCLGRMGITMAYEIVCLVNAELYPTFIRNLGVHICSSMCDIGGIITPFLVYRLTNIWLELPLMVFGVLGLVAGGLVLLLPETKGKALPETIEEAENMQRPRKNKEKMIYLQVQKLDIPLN
Protocol: This was tested using Chinese Hamster Ovary (CHO) cells, parental or stably transfected with OCT2. ^14C-Metformin was used as OCT2 substrate.
CHO cell lines, parental and stably transfected with OCT2 were obtained from Solvo Biotechnology (Hungary).
CHO cells were cultured in DMEM-F12 (Dulbecco's Modified Eagle Medium) supplemented with 0.03 mg/mL L-Proline, 1% L-Glutamine, penicillin (50-100 U/mL), streptomycin (50-100 μg/mL) and 10% (v/v) foetal calf or bovine serum (FCS) further referred to as “CHO culture medium”.
If needed, non-radiolabeled and radio-labeled compounds were mixed to obtain the proper chemical and radioactive concentration. Proper solvent controls were included.
Both, CHO parental and OCT2 cells were seeded into 24 well plates (1 mL/well, 400 000 cells/well) in CHO culture medium.
Transport experiments were performed in Hank's Balanced Salt Solution^+Ca,+Mg (HBSS^+/+) supplemented with 10 mM HEPES at pH 7.4. All media added to the cells and plates were kept at 37° C.
Before the incubation, the cells in each well were washed twice with 1 mL HBSS^+/++10 mM Hepes pH 7.4 at 37° C. Next, the incubation medium, containing reference substrate and the inhibitors (or inhibitor solvent) was added (250 μL/well).
At the time of dose administration (0 min), 150 μL of the dosing solution was sampled in triplicate for determination of initial concentrations by Liquid Scintillation Counting (LSC). During the incubation period, the plates were kept at 37° C.
To stop the reaction, 1.5 mL ice-cold HBSS^+/+ was added to each well and the liquids were aspirated. Again, to each well 2 mL ice-cold HBSS^+/+ was added and aspirated while keeping the plate angled. Following aspiration of the last well, all the wells were aspirated again taking care of not touching the cells.
To lyse the cells, 250 μL of Mammalian Protein Extraction Reagent (M-PER) lysis buffer was added to each well and the plates were shaken for at least 10 minutes (400 rpm). For LSC, a 150 μL sample/well was taken and for protein analysis a 25 μL sample/well. […]

[4] = Toxicology study of compound A in rabbit; type: in vivo
Protocol: (§5) [drawing 2] was explored in a phase I, first-in-human trial. […] Extensive additional pre-clinical experiments were performed to understand the nature of the renal effects. Metabolism data pointed into the direction of the rabbit to be a suitable toxicology species.

[5] = Phase I, first-in-human trial of compound A; type: in vivo
Protocol: The safety, pharmacokinetics, pharmacodynamics and initial efficacy of the potent and selective c-Met inhibitor with the following structure
as §5

[6] = Pre-clinical toxicity tests of compound A in dog; type: in vivo
Protocol: as §5

[7] = Pre-clinical toxicity tests of compound A in rat; type: in vivo
Protocol: as §5

[8] = single oral 10 mg/kg of compound (I)
[9] = single oral 10 mg/kg of compound A

| Molecule | AUC(0-inf) [1, 8] [ng·h/mL] | Cmax [1, 8] [ng/mL] | Tmax [1, 8] [h] | MRT [1, 8] [h] | AUC(0-inf) [1, 9] [ng·h/mL] | AUC(0-t) [1, 9] [ng·h/mL] | Cmax [1, 9] [ng/mL] | Tmax [1, 9] [h] | MRT [1, 9] [h] | AUC(0-t) [1, 8] [ng·h/mL] | other results |
| --- | --- | --- | --- | --- | --- | --- | --- | --- | --- | --- | --- |
| O=c1ccc2cc(C(F)(F)c3nnc4ccc(-c5cn[nH]c5)nn34)ccc2[nH]1 [Metabolite 1, 6-{Difluoro[6-(1H-pyrazol-4-yl)[1,2,4]triazolo[4,3-b]pyridazin-3-yl]methyl}quinolin-2(1H)-one] | 409 ± 7 | 57.5 ± 34.2 | 2.3 ± 1.5 | 7 ± 0.7 | 1050 ± 421 | 934 ± 336 | 126 ± 80 | 2.7 ± 1.2 | 7.8 ± 1.4 |  |  |
| Cn1cc(-c2ccc3nnc(C(F)(F)c4ccc5[nH]c(=O)ccc5c4)n3n2)cn1 [Metabolite 2, 6-{Difluoro[6-(1-methyl-1H-pyrazol-4-yl)[1,2,4]triazolo[4,3-b]pyridazin-3-yl]methyl}quinolin-2(1H)-one] | 152 ± 81 | 39.8 ± 13.1 | 0.8 ± 0.3 | 3.8 ± 0.7 | 439 ± 331 | 341 ± 259 | 84.4 ± 55.9 | 1 | 5 ± 9 | 127 ± 65 | solubility ([2]; pH 4.84, aqueous buffer): 1 µg/mL; solubility ([2]; pH 7.33, aqueous buffer): 2 µg/mL; half-life [1, 9]: 3 ± 0.5 h |
| [2H]c1ccc2cc(C(F)(F)c3nnc4ccc(-c5cn[nH]c5)nn34)ccc2n1 [N-desmethyl metabolite 3] | 2360 ± 450 | 738 ± 447 | 1.2 ± 0.8 | 5.1 ± 0.3 |  |  |  |  |  | 2310 ± 392 | half-life [1, 8]: 4.4 ± 1.9 h |
| [2H]c1ccc2cc(C(F)(F)c3nnc4ccc(-c5cnn(C)c5)nn34)ccc2n1 [Compound of formula (I)] | 8570 ± 6440 | 3570 ± 2320 | 0.5 | 4.6 ± 1 |  |  |  |  |  | 8460 ± 6520 | IC50 (EBC1): 12 nM; cytotoxic effects (in words) (CHO Parental cells): no cytotoxic effects were observed; Cell Viability % (CHO Parental cells): 104%; formation of insoluble/less soluble aldehyde oxidase mediated metabolites [3]: down regulated; IC50 (SNU-5): 13.2 nM; Cell Viability % (CHO OCT2 cells): 103%; IC50 (OCT2 (SLC22A2)): 670 ± 20 nM; inhibition of the 14C-Metformin uptake in OCT2 cells (in words) (OCT2 (SLC22A2)): shows inhibition |
| Cn1cc(-c2ccc3nnc(C(F)(F)c4ccc5ncccc5c4)n3n2)cn1 [Compound A, reference compound] | 62.3 ± 47.8 | 27.6 ± 17.4 | 0.5 | 3.24 ± 0.76 | 8220 ± 5740 | 8190 ± 5740 | 1830 ± 1360 | 1 | 5.2 ± 0.9 | 53.7 ± 40.6 | effect on renal function [4]: did affect renal function; histological analysis of kidney [4]: crystal formation with consequently degenerative and inflammatory changes in the kidney; toxicity finding in phase I, first-in-human trial [5]: unexpected renal toxicity; IC50 (EBC1): 13.4 nM; half-life [1, 8]: 2.1 ± 0.4 h; IC50 (SNU-5): 13.8 nM; pre-clinical toxicity profile [6]: clean toxicity profile; pre-clinical toxicity profile [7]: clean toxicity profile |
| FC(F)(c1ccc2ncccc2c1)c1nnc2ccc(-c3cn[nH]c3)nn12 [N-desmethyl metabolite 4, 6-{Difluoro[6-(1H-pyrazol-4-yl)[1,2,4]triazolo[4,3-b]pyridazin-3-yl]methyl}quinoline] |  |  |  |  | 1510 ± 190 | 1490 ± 193 | 299 ± 146 | 1.3 ± 0.6 | 5.7 ± 0.9 |  |  |
| C=C[C@H]1C[N@@]2CC[C@H]1C[C@@H]2[C@@H](O)c1ccnc2ccc(OC)cc12 [Quinidine, reference compound] |  |  |  |  |  |  |  |  |  |  | inhibition at 1 min, 300 μM (OCT2 (SLC22A2); human, pH 7.4, inhibition of 14C-Metformin uptake): 85.5% |
| Triton X-100 [reference compound] |  |  |  |  |  |  |  |  |  |  | cytotoxic effects (in words) (CHO Parental cells): viability dropped dramatically; Cell Viability % (CHO Parental cells): 0%; Cell Viability % (CHO OCT2 cells): 0% |

From patent US10464939B2, “Deuterated triazolopyridazine as a kinase modulator” (Janssen Pharmaceutica NV, priority 2014, dated 2019)
